# Assay results from US4345938A, “Herbicidal 2-haloacetanilides” (Monsanto Company, priority 1980, dated 1982).
# Where two headings read alike, the source gives them in different places.
# Legend:
# Format in all cases: in vivo
# [1] = tested on: Echinochloa crus-galli; experiment: Field transplant rice test, applied 0 DAT, EC; details: 0 h, read-out: Percent Inhibition, EC; for inhibition at 375 g/ha: 0.375 Kg/Ha; for inhibition at 750 g/ha: 0.75 Kg/Ha; for inhibition at 1500 g/ha: 1.5 Kg/Ha; for inhibition at 3000 g/ha: 3.0 Kg/Ha
# Protocol: (§1) The test data in Table III for all compounds was obtained under identical test conditions. The weeds used in the tests herein have the following abbreviations in the tables: Echinochloa crus-galli (EC), Monochloria vaginalis (MV), Cyperus Serotinus (CS), Eleocharis Kuroguwai (EK) and Sagittaria trifolia (ST).
# (§2) In further comparative tests, a preferred compound of this invention (Example 1) was tested in the field with prior art Compounds A-D. These tests were conducted under conditions reflecting herbicide application times generally favorable to all herbicides in the test. The timing of application of herbicides to transplant rice is very important, whether, as in some instances, prior to transplanting the rice; in other instances, at the time of transplanting or else after transplanting. Application times are conventionally referred to as "days before transplant" (DBT) or "days after transplant" ("DAT"). The field test data in Table IV was obtained from a test in which the herbicides were applied at the time of transplant, i.e., "0 DAT", with observations being made weekly up to six weeks after transplant ("WAT") beginning at two weeks after transplant; for illustrative and representative purposes, only the early, middle and late period observations, i.e., 2 WAT, 4 WAT and 6 WAT, are shown in Table IV. The data in Table IV is for rates of application common to all herbicides in the test, i.e., from 3.0 kg/ha (2.67 lb/A) down to 0.375 kg/ha (0.34 lb/A). All herbicides were applied at their actual or expected use rates, i.e., as granules containing 2.5% by weight herbicide for the compound of Example 1, Compounds B, C and D and 5.0% by weight for Compound A.
# [2] = tested on: Sagittaria trifolia; experiment: Field transplant rice test, applied 0 DAT, ST; details: 0 h, read-out: Percent Inhibition, ST; for inhibition at 375 g/ha: 0.375 Kg/Ha; for inhibition at 750 g/ha: 0.75 Kg/Ha; for inhibition at 1500 g/ha: 1.5 Kg/Ha; for inhibition at 3000 g/ha: 3.0 Kg/Ha
# Protocol: as §1, §2
# [3] = tested on: Rice; experiment: Field transplant rice test, applied 9 DAT, rice injury; details: Oryza sativa, 216 h, read-out: Percent Inhibition, Rice; for inhibition at 375 g/ha: 0.375 Kg/Ha; for inhibition at 750 g/ha: 0.75 Kg/Ha; for inhibition at 1500 g/ha: 1.5 Kg/Ha; for inhibition at 3000 g/ha: 3.0 Kg/Ha
# Protocol: as §2
# (§3) In Table V are presented field data showing the relative performance of the compound of Example 1 and Compounds A-D applied 9 DAT, with observations being made weekly from 3 WAT to 7 WAT; again, for illustrative and representative purposes, only the early, middle and late period observations are reported in Table V, the herbicide rates and concentrations of active ingredients the same as is shown in Table IV.
# [4] = tested on: Echinochloa crus-galli; experiment: Field transplant rice test, applied 9 DAT, EC; details: for inhibition at 375 g/ha / inhibition at 750 g/ha / inhibition at 1500 g/ha / inhibition at 3000 g/ha: Echinochloa crus-galli, 216 h, read-out: Percent Inhibition, EC; for inhibition at 375 g/ha: 0.375 Kg/Ha; for inhibition at 750 g/ha: 0.75 Kg/Ha; for inhibition at 1500 g/ha: 1.5 Kg/Ha; for inhibition at 3000 g/ha: 3.0 Kg/Ha
# Description: (§4) In the discussion of data below, occasional reference is made to herbicide application rates symbolized as "GR15 " and "GR85 "; these rates are given in kilograms per hectare (kg/ha) which are convertible into pounds per acre (lbs/A) by dividing the kg/ha rate by 1.12.
# (§5) A further guide to the effectiveness of a chemical as a selective herbicide is the "selectivity factor" ("SF") for a herbicide in given crops and weeds. The selectivity factor is a measure of the relative degree of crop safety and weed injury and is expressed in terms of the GR15 /GR85 ratio, i.e., the GR15 rate for the crop divided by the GR85 rate for the weed, both rates in kg/ha (lb/A.)
# as §1, §2, §3
# [5] = tested on: Monochoria vaginalis; experiment: Field transplant rice test, applied 9 DAT, MV; details: for inhibition at 375 g/ha / inhibition at 750 g/ha / inhibition at 1500 g/ha / inhibition at 3000 g/ha: Pontederia vaginalis, 216 h, read-out: Percent Inhibition, MV; for inhibition at 375 g/ha: 0.375 Kg/Ha; for inhibition at 750 g/ha: 0.75 Kg/Ha; for inhibition at 1500 g/ha: 1.5 Kg/Ha; for inhibition at 3000 g/ha: 3.0 Kg/Ha
# Description: as §4, §5, §1, §2, §3
smiles,measurement,setting,value
"CCCOCCN(C(=O)CCl)c1c(CC)cccc1CC [Compound D, 2',6'-diethyl-N-(n-propoxyethyl)-2-chloroacetanilide]",inhibition at 375 g/ha,[1]; 2 WAT,73%
same,inhibition at 375 g/ha,[1]; 4 WAT,88%
same,inhibition at 375 g/ha,[1]; 6 WAT,83%
same,inhibition at 750 g/ha,[1]; 2 WAT,90%
same,inhibition at 750 g/ha,[1]; 4 WAT,100%
same,inhibition at 750 g/ha,[1]; 6 WAT,100%
same,inhibition at 1500 g/ha,[1]; 2 WAT,97%
same,inhibition at 1500 g/ha,[1]; 4 WAT,98%
same,inhibition at 1500 g/ha,[1]; 6 WAT,93%
same,inhibition at 3000 g/ha,[1]; 2 WAT,99%
same,inhibition at 3000 g/ha,[1]; 4 WAT,100%
same,inhibition at 3000 g/ha,[1]; 6 WAT,100%
same,inhibition at 375 g/ha,[2]; 2 WAT,20%
same,inhibition at 375 g/ha,[2]; 4 WAT,2%
same,inhibition at 375 g/ha,[2]; 6 WAT,0%
same,inhibition at 750 g/ha,[2]; 2 WAT,28%
same,inhibition at 750 g/ha,[2]; 4 WAT,10%
same,inhibition at 750 g/ha,[2]; 6 WAT,7%
same,inhibition at 1500 g/ha,[2]; 2 WAT,23%
same,inhibition at 1500 g/ha,[2]; 4 WAT,27%
same,inhibition at 1500 g/ha,[2]; 6 WAT,22%
same,inhibition at 3000 g/ha,[2]; 2 WAT,22%
same,inhibition at 3000 g/ha,[2]; 4 WAT,28%
same,inhibition at 3000 g/ha,[2]; 6 WAT,18%
same,inhibition at 375 g/ha,[3]; 3 WAT,8%
same,inhibition at 375 g/ha,[3]; 5 WAT,7%
same,inhibition at 375 g/ha,[3]; 7 WAT,7%
same,inhibition at 750 g/ha,[3]; 3 WAT,10%
same,inhibition at 750 g/ha,[3]; 5 WAT,5%
same,inhibition at 750 g/ha,[3]; 7 WAT,2%
same,inhibition at 1500 g/ha,[3]; 3 WAT,10%
same,inhibition at 1500 g/ha,[3]; 5 WAT,5%
same,inhibition at 1500 g/ha,[3]; 7 WAT,7%
same,inhibition at 3000 g/ha,[3]; 3 WAT,15%
same,inhibition at 3000 g/ha,[3]; 5 WAT,5%
same,inhibition at 3000 g/ha,[3]; 7 WAT,8%
same,inhibition at 375 g/ha,[4]; 3 WAT,62%
same,inhibition at 375 g/ha,[4]; 5 WAT,48%
same,inhibition at 375 g/ha,[4]; 7 WAT,57%
same,inhibition at 750 g/ha,[4]; 3 WAT,88%
same,inhibition at 750 g/ha,[4]; 5 WAT,92%
same,inhibition at 750 g/ha,[4]; 7 WAT,88%
same,inhibition at 1500 g/ha,[4]; 3 WAT,78%
same,inhibition at 1500 g/ha,[4]; 5 WAT,75%
same,inhibition at 1500 g/ha,[4]; 7 WAT,78%
same,inhibition at 3000 g/ha,[4]; 3 WAT,100%
same,inhibition at 3000 g/ha,[4]; 5 WAT,100%
same,inhibition at 3000 g/ha,[4]; 7 WAT,100%
same,"selectivity factor (GR15/GR85), EC in transplant rice",[4]; between 3 WAT and 7 WAT,1
same,inhibition at 375 g/ha,[5]; 3 WAT,95%
same,inhibition at 375 g/ha,[5]; 5 WAT,98%
same,inhibition at 375 g/ha,[5]; 7 WAT,95%
same,inhibition at 750 g/ha,[5]; 3 WAT,100%
same,inhibition at 750 g/ha,[5]; 5 WAT,87%
same,inhibition at 750 g/ha,[5]; 7 WAT,100%
same,inhibition at 1500 g/ha,[5]; 3 WAT,100%
same,inhibition at 1500 g/ha,[5]; 5 WAT,100%
same,inhibition at 1500 g/ha,[5]; 7 WAT,100%
same,inhibition at 3000 g/ha,[5]; 3 WAT,100%
same,inhibition at 3000 g/ha,[5]; 5 WAT,100%
same,inhibition at 3000 g/ha,[5]; 7 WAT,100%
same,"selectivity factor (GR15/GR85), MV in transplant rice",[5]; between 3 WAT and 7 WAT,8
